Assay results published in patent publication US6063814A, “Phorbol esters as anti-neoplastic and white blood cell elevating agents” (priority 1997, dated 2000).
Read-outs that look alike come from different tables or passages of the source.

Assays:
[1] = format: in vivo, humans
Method: TPA solution in a sterile syringe was injected into 200 ml of saline and mixed well for i.v. infusion.
2. The Toxicity and Side Effects of Different TPA Doses Administered Clinically:
One mg TPA in solution was mixed well with 200 ml of saline for i.v. infusion which was completed in 1 h at the rate of 16 μg/min. […] The above symptoms could be alleviated by giving the patients glucocorticoids. […] The cardiac, hepatic, renal and pulmonary functions were all found to be normal.
0.5 mg of TPA in solution was mixed well with 200 ml of saline for i.v. infusion which was completed in 1 h at the rate of 8 μg/min. […] Difficulty in breathing was not observed. The cardiac, hepatic, renal and pulmonary functions were all normal.
0.25 mg of TPA in solution was mixed well with 200 ml of saline for i.v. infusion which was completed in 1 h at the rate of 4 μg/min. […] The cardiac, hepatic, renal and pulmonary functions were all normal.

[2] = test system: leukemia (bone marrow myeloblast and promyelocyte); test: Clinical treatment of leukemia patients with TPA; format: in vivo, humans
[3] = Chemical stability of TPA solutions on storage; format: physicochemical; conditions: dark
Method: 0.10, 0.125, 0.25 or 0.5 mg of TPA was dissolved in 1.3 ml 95-100% U.S.P. ethanol and 0.7 ml saline. Under sterile conditions, TPA was first dissolved in ethanol, then saline was added, mixed vigorously, bacteriologically filtered, and stored in sealed sterile amber vials containing either 0.10 mg/2 ml, 0.125 ml/2 ml or 0.25 mg/2 ml, 0.5 mg/2 ml.
0.10, 0.125, 0.25 or 0.5 mg of TPA was dissolved in 0.2 ml of ethanol, 1.2 ml of isopropanol and 0.6 ml saline. Under sterile conditions, TPA was first dissolved in the ethanol and isopropanol, then saline was added, and the mixture was vigorously mixed, bacteriologically filtered and stored in sealed sterile amber vials containing either 0.10 mg/2 ml, 0.125 ml/2 ml or 0.25 mg/2 ml or 0.5 mg/2 ml.

[4] = test system: Peripheral White Blood Cells (WBC) and Hemoglobin (Hb); test: Peripheral white blood cell and hemoglobin counts in S180 cell-injected mice; format: in vivo; conditions: for WBC count: control 13.6±1.8; for Hb: control 134±15
Method: Effect of TPA on the Peripheral White Blood Cells (WBC) and Hemoglobin (Hb) Counts in S180 Cell-Injected Mice:
S180 cells were injected into mice. On the third day, the mice were given TPA i.p. at 50, 100 or 200 μg/kg/d for 7 days. On the second day after the treatment was completed, blood samples were taken from the tails of the treated mice for WBC and Hb analyses.

[5] = test system: skin and the mucous membrane; conditions: cited from earlier work
[6] = 0.25 mg/patient×4/week, i.v. infusion in 1 h
[7] = 0.5 mg/patient×2/week, i.v. infusion in 1 h
[8] = 1 mg/patient/week, i.v. infusion in 1 h
[9] = subject 8, AML-M3, retinoic acid failed
[10] = subject 9, secondary aplastic anemia, TPA 0.25 mg×2

CCCCCCCCCCCCCC(=O)O[C@@H]1[C@@H](C)[C@@]2(O)[C@@H](C=C(CO)C[C@]3(O)C(=O)C(C)=C[C@@H]23)[C@@H]2C(C)(C)[C@]12OC(C)=O [TPA, Phorbol 12-Myristate-13-Acetate]
Hb in urine [1, 6]: No Hb was detected in the urine
cardiac, hepatic, renal and pulmonary functions [1, 6]: normal
chills and fever [1, 6]: also observed, but to a much lesser extent than with the higher dosages
difficulty in breathing [1, 6]: no patient suffered difficulty in breathing
Hb in urine [1, 7]: Occasionally, Hb was detected in patients urine
cardiac, hepatic, renal and pulmonary functions [1, 7]: normal
difficulty in breathing [1, 7]: not observed
tolerability ([1]; 0.5 mg/patient×2/week, versus 1 mg): tolerated the lower dose more easily
Hb in urine [1, 8]: Hb was detected in the urine
bleeding [1, 8]: a minority of patients to bleed
cardiac, hepatic, renal and pulmonary functions [1, 8]: normal
difficulty in breathing [1, 8]: several patients suffered for a short period of time difficulty in breathing
duration of chills [1, 8]: about 30 min
duration of fever [1, 8]: 3 to 5 h
fever, patients' temperature [1, 8]: 37.5-39.5 °C
onset of chills [1, 8]: One hour after TPA administration
perspiration [1, 8]: light to heavy perspiration
reversibility of side effects [1, 8]: short lived and reversible
local irritation ([1]; TPA application): strong local irritation
Bone marrow myeloblast+promyelocyte after TPA treatment [2, 9]: 17%
Hb after TPA treatment [2, 9]: 66 g/L
WBC after TPA treatment [2, 10]: 1.9e+09 L⁻¹
treatment termination [2, 10]: Due to severe anemia, the TPA treatment was terminated
Bone marrow Myeloblast and promyelocyte, early in TPA treatment ([2]; subject 10, CML, 0.25 mg TPA once): 9%
myeloblast, promyelocyte, myelocyte ([2]; subject 10, CML, TPA 0.25 mg once, fifth day): completely disappeared
chemical change on storage ([3]; cold temperature, up to one year): no chemical change
chemical change on storage ([3]; room temperature, up to two months): no chemical change
WBC count ([4]; i.p. 50 μg/kg/d for 7 d): 16.1±7.4 ×10^9 /L
Hb ([4]; i.p. 50 μg/kg/d for 7 d): 136 ± 11 g/L
WBC count ([4]; i.p. 100 μg/kg/d for 7 d): 18.7±3.0 ×10^9 /L
Hb ([4]; i.p. 100 μg/kg/d for 7 d): 149 ± 12 g/L
WBC count ([4]; i.p. 200 μg/kg/d for 7 d): 20.7±3.4 ×10^9 /L
Hb ([4]; i.p. 200 μg/kg/d for 7 d): 149 ± 10 g/L
effect on Hb levels ([4]; i.p. 50-200 μg/kg/d for 7 d): not greatly affected
effect on peripheral WBC counts ([4]; i.p. 50-200 μg/kg/d for 7 d): could increase the peripheral WBC counts in mice in a dose-dependent manner
harm on oral ingestion [5]: harmful if ingested orally
irritant to skin [5]: highly potent irritant to skin
